# Laboratory results reported in patent EP1798220A1, “Dibenzene derivatives as calcium channel blockers” (Neuropharma S.A., priority 2005, dated 2007).
# Test system: VDCC
# Test: VDCC inhibition: calcium entry (Fluo-4 fluorescence) in SH-SY5Y cells after depolarization with 60 mM KCl
# Assay type: cell-based, human
# Conditions: 10 min exposure, 60 mM KCl depolarization
# Procedure: This assay is aimed to determine the VDCC blocker activity of compounds; it is performed using SH-SY5Y neuroblastoma cells. SH-SY5Y cells were plated at 5x10^5 cells per well into Black / Clear Bottom 96-well culture plate, 48 hours before treatment. Cells were loaded with Fluo-4, 5 µM and pluronic acid, 0.1%, for 30 min at 37°C, 5%CO2, following a incubation of 15 min at RT in Krebs-HEPES solution. Immediately cells are exposed to the samples at different concentrations for 10 min. The compounds were tested at […], depending on potency. After the treatment, calcium entry is measured as fluorescence in a Fluostar Optima plate reader (BMG) in response to depolarization with 60 mM KCl. The excitation wavelength was 485 nm, and that of emission 520 nm.
structure (smiles),measurement,setting,value
COCOc1cc(OC)ccc1C(=O)NCCCOc1c(Br)cc(CCNC(=O)c2ccc(OC)cc2OCOC)cc1Br [Compound 4],% of calcium entry inhibition,compound at 10^-5 (M),87.3 ± 5%
same,% of calcium entry inhibition,compound at 10^-6 (M),27.3 ± 5%
same,% of calcium entry inhibition,compound at 10^-7 (M),6 ± 0%
COCOc1cc(OC)ccc1C(=O)NCCCCCCNC(=O)c1ccc(OC)cc1OCOC [Compound 3],% of calcium entry inhibition,compound at 10^-5 (M),37.5 ± 7%
same,% of calcium entry inhibition,compound at 10^-6 (M),"6,6 ± 2%"
COc1cc(O)c(C(=O)NCCCCCNC(=O)c2cc(Br)c(OC)cc2O)cc1Br [Compound 5],% of calcium entry inhibition,compound at 10^-5 (M),21.8 ± 5%
